{"source": "patent US20070270484A1", "about": "“3'-N-Substituted-3-O-Substituted Erythronolide a Derivatives” (priority 2003, published 2007)", "key": {"S. pneum ATCC 49619": {"test_system": "S. pneum ATCC 49619", "test": "MIC, agar incorporation method (NCCLS agar dilution method)", "type": "cell-based, streptococcus pneumoniae", "conditions": "35±2° C.; for Minimum Inhibitory Concentrations, S. pneum ATCC 49619: 18-24 hours, 5% CO2", "method": "(§1) Drug dilutions and the agar plates are prepared by NCCLS method. Inoculum is prepared by direct colony suspensions in normal saline and adjusted to 0.5 McFarland turbidity and subsequently diluted as per NCCLS guidelines in order to obtain 10^4 CFU/spot. CFU/ml of a few randomly selected cultures is performed. The cultures are replicated on the agar plates using replicator (Denley's multipoint). The plates are incubated at 35±2° C. and in 5% CO2 atmosphere (for respiratory and Haemophilus strains) for 18-24 hours at 35±2° C. Minimum inhibitory concentrations (MIC) are determined after 18-24 hours. Q. C. strains are also included in each run of the study. The cation content of Mueller Hinton agar is checked by performing disk […] of 10 μg gentamicin disk against Pseudomonas aeroginosa ATCC 27853. The zone of inhibition should fall between 16-21 mm. The concentration of drug at which there is complete disappearance of growth spot or formation of less than 10 colonies per spot is considered as MIC."}, "S. pneum ATCC 6303": {"test_system": "S. pneum ATCC 6303", "test": "MIC, agar incorporation method (NCCLS agar dilution method)", "type": "cell-based, streptococcus pneumoniae", "conditions": "18-24 hours, 35±2° C., 5% CO2", "method": "as §1"}, "S. pneum CS 1687 (mef)": {"test_system": "S. pneum CS 1687 (mef)", "test": "MIC, agar incorporation method (NCCLS agar dilution method)", "type": "cell-based, streptococcus pneumoniae", "conditions": "18-24 hours, 35±2° C., 5% CO2, mef: efflux pump mef genes", "method": "as §1"}, "S. pneum 1251 (mef)": {"test_system": "S. pneum 1251 (mef)", "test": "MIC, agar incorporation method (NCCLS agar dilution method)", "type": "cell-based, streptococcus pneumoniae", "conditions": "18-24 hours, 35±2° C., 5% CO2, mef: efflux pump mef genes", "method": "as §1"}, "S. pneum AB 34 (mef)": {"test_system": "S. pneum AB 34 (mef)", "test": "MIC, agar incorporation method (NCCLS agar dilution method)", "type": "cell-based, streptococcus pneumoniae", "conditions": "18-24 hours, 35±2° C., 5% CO2, mef: efflux pump mef genes", "method": "as §1"}, "H. inflenza ATCC 49247": {"test_system": "H. inflenza ATCC 49247", "test": "MIC, agar incorporation method (NCCLS agar dilution method)", "type": "cell-based, Haemophilus influenzae", "conditions": "agar dilution, 18-24 hours, 35±2° C., 5% CO2", "method": "Minimum inhibitory concentrations (μg/ml) were obtained for representative compounds of the invention, which are given in Table 2.\nas §1"}, "S. pneum 1294 (mef)": {"test_system": "S. pneum 1294 (mef)", "test": "microbe, parasite or virus in culture", "type": "cell-based, streptococcus pneumoniae", "conditions": "agar dilution, 18-24 hours, 35±2° C., 5% CO2; mef: efflux pump mef genes", "method": "as §1"}, "S. pneum AB 14 (erm)": {"test_system": "S. pneum AB 14 (erm)", "test": "microbe, parasite or virus in culture", "type": "cell-based, streptococcus pneumoniae", "conditions": "for Minimum Inhibitory Concentrations, S. pneum AB 14 (erm): agar dilution, 18-24 hours, 35±2° C., 5% CO2, erm: ribosomal modification (mutation) erm genes", "method": "as §1"}, "S. pneum 1256 (erm)": {"test_system": "S. pneum 1256 (erm)", "test": "microbe, parasite or virus in culture", "type": "cell-based, streptococcus pneumoniae", "conditions": "agar dilution, 18-24 hours, 35±2° C., 5% CO2; erm: ribosomal modification (mutation) erm genes", "method": "as §1"}, "S. pneum AB 30 (erm)": {"test_system": "S. pneum AB 30 (erm)", "test": "microbe, parasite or virus in culture", "type": "cell-based, streptococcus pneumoniae", "conditions": "agar dilution, 18-24 hours, 35±2° C., 5% CO2; erm: ribosomal modification (mutation) erm genes", "method": "as §1"}, "S. pneum 1275 (erm)": {"test_system": "S. pneum 1275 (erm)", "test": "microbe, parasite or virus in culture", "type": "cell-based, streptococcus pneumoniae", "conditions": "for Minimum Inhibitory Concentrations, S. pneum 1275 (erm): agar dilution, 18-24 hours, 35±2° C., 5% CO2, erm: ribosomal modification (mutation) erm genes", "method": "as §1"}, "MoraXella MI": {"test_system": "MoraXella MI", "test": "MIC, agar incorporation method (NCCLS agar dilution method)", "type": "cell-based", "conditions": "18-24 hours, 35±2° C.", "method": "as §1"}}, "data": [{"compound": "3-O-(3-Fluorophenyl)acetyl-5-O-(3′-N-desmethyl-3′-N-propargyl)desosaminyl-6-O-methyl erythronolide A [Compound No. 22]", "values": [{"measurement": "Minimum Inhibitory Concentrations, S. pneum ATCC 49619", "setting": "S. pneum ATCC 49619", "result": 0.5, "unit": "µg/mL"}, {"measurement": "Minimum Inhibitory Concentrations, S. pneum ATCC 6303", "setting": "S. pneum ATCC 6303", "result": 0.5, "unit": "µg/mL"}, {"measurement": "Minimum Inhibitory Concentrations, S. pneum CS 1687 (mef)", "setting": "S. pneum CS 1687 (mef)", "result": 1, "unit": "µg/mL"}, {"measurement": "Minimum Inhibitory Concentrations, S. pneum 1251 (mef)", "setting": "S. pneum 1251 (mef)", "result": 4, "unit": "µg/mL"}, {"measurement": "Minimum Inhibitory Concentrations, S. pneum AB 34 (mef)", "setting": "S. pneum AB 34 (mef)", "result": ">16", "unit": "µg/mL"}, {"measurement": "Minimum Inhibitory Concentrations, H. inflenza ATCC 49247", "setting": "H. inflenza ATCC 49247", "result": ">16", "unit": "µg/mL"}, {"measurement": "Minimum Inhibitory Concentrations, S. pneum 1294 (mef)", "setting": "S. pneum 1294 (mef)", "result": 4, "unit": "µg/mL"}, {"measurement": "Minimum Inhibitory Concentrations, S. pneum AB 14 (erm)", "setting": "S. pneum AB 14 (erm)", "result": ">16", "unit": "µg/mL"}, {"measurement": "Minimum Inhibitory Concentrations, S. pneum 1256 (erm)", "setting": "S. pneum 1256 (erm)", "result": ">16", "unit": "µg/mL"}, {"measurement": "Minimum Inhibitory Concentrations, S. pneum AB 30 (erm)", "setting": "S. pneum AB 30 (erm)", "result": ">16", "unit": "µg/mL"}, {"measurement": "Minimum Inhibitory Concentrations, S. pneum 1275 (erm)", "setting": "S. pneum 1275 (erm)", "result": ">16", "unit": "µg/mL"}, {"measurement": "Minimum Inhibitory Concentrations, MoraXella MI", "setting": "MoraXella MI", "result": 4, "unit": "µg/mL"}]}, {"compound": "3-O-(3-Fluorophenyl)acetyl-5-O-[3′-N-desmethyl-3′-N-cyclopropyl)desosaminyl-6-O-methyl erythronolide A [Compound No. 16]", "values": [{"measurement": "Minimum Inhibitory Concentrations, S. pneum ATCC 49619", "setting": "S. pneum ATCC 49619", "result": 4, "unit": "µg/mL"}, {"measurement": "Minimum Inhibitory Concentrations, S. pneum ATCC 6303", "setting": "S. pneum ATCC 6303", "result": 1, "unit": "µg/mL"}, {"measurement": "Minimum Inhibitory Concentrations, S. pneum CS 1687 (mef)", "setting": "S. pneum CS 1687 (mef)", "result": 4, "unit": "µg/mL"}, {"measurement": "Minimum Inhibitory Concentrations, S. pneum 1251 (mef)", "setting": "S. pneum 1251 (mef)", "result": 8, "unit": "µg/mL"}, {"measurement": "Minimum Inhibitory Concentrations, S. pneum AB 34 (mef)", "setting": "S. pneum AB 34 (mef)", "result": ">16", "unit": "µg/mL"}, {"measurement": "Minimum Inhibitory Concentrations, H. inflenza ATCC 49247", "setting": "H. inflenza ATCC 49247", "result": ">16", "unit": "µg/mL"}, {"measurement": "Minimum Inhibitory Concentrations, S. pneum 1294 (mef)", "setting": "S. pneum 1294 (mef)", "result": 1, "unit": "µg/mL"}, {"measurement": "Minimum Inhibitory Concentrations, S. pneum AB 14 (erm)", "setting": "S. pneum AB 14 (erm)", "result": ">16", "unit": "µg/mL"}, {"measurement": "Minimum Inhibitory Concentrations, S. pneum 1256 (erm)", "setting": "S. pneum 1256 (erm)", "result": 16, "unit": "µg/mL"}, {"measurement": "Minimum Inhibitory Concentrations, S. pneum AB 30 (erm)", "setting": "S. pneum AB 30 (erm)", "result": ">16", "unit": "µg/mL"}, {"measurement": "Minimum Inhibitory Concentrations, S. pneum 1275 (erm)", "setting": "S. pneum 1275 (erm)", "result": ">16", "unit": "µg/mL"}, {"measurement": "Minimum Inhibitory Concentrations, MoraXella MI", "setting": "MoraXella MI", "result": ">16", "unit": "µg/mL"}]}, {"compound": "3-O-(4-Fluorophenyl)acetyl-5-O-(3′-N-desmethyl-3′-N-allyl)desosaminyl-6-O-methyl erythronolide A [Compound No. 20]", "values": [{"measurement": "Minimum Inhibitory Concentrations, S. pneum ATCC 49619", "setting": "S. pneum ATCC 49619", "result": 0.25, "unit": "µg/mL"}, {"measurement": "Minimum Inhibitory Concentrations, S. pneum ATCC 6303", "setting": "S. pneum ATCC 6303", "result": 0.5, "unit": "µg/mL"}, {"measurement": "Minimum Inhibitory Concentrations, S. pneum CS 1687 (mef)", "setting": "S. pneum CS 1687 (mef)", "result": 1, "unit": "µg/mL"}, {"measurement": "Minimum Inhibitory Concentrations, S. pneum 1251 (mef)", "setting": "S. pneum 1251 (mef)", "result": 1, "unit": "µg/mL"}, {"measurement": "Minimum Inhibitory Concentrations, S. pneum AB 34 (mef)", "setting": "S. pneum AB 34 (mef)", "result": ">16", "unit": "µg/mL"}, {"measurement": "Minimum Inhibitory Concentrations, H. inflenza ATCC 49247", "setting": "H. inflenza ATCC 49247", "result": ">16", "unit": "µg/mL"}, {"measurement": "Minimum Inhibitory Concentrations, S. pneum 1294 (mef)", "setting": "S. pneum 1294 (mef)", "result": 1, "unit": "µg/mL"}, {"measurement": "Minimum Inhibitory Concentrations, S. pneum AB 14 (erm)", "setting": "S. pneum AB 14 (erm)", "result": ">16", "unit": "µg/mL"}, {"measurement": "Minimum Inhibitory Concentrations, S. pneum 1256 (erm)", "setting": "S. pneum 1256 (erm)", "result": 16, "unit": "µg/mL"}, {"measurement": "Minimum Inhibitory Concentrations, S. pneum AB 30 (erm)", "setting": "S. pneum AB 30 (erm)", "result": ">16", "unit": "µg/mL"}, {"measurement": "Minimum Inhibitory Concentrations, S. pneum 1275 (erm)", "setting": "S. pneum 1275 (erm)", "result": ">16", "unit": "µg/mL"}, {"measurement": "Minimum Inhibitory Concentrations, MoraXella MI", "setting": "MoraXella MI", "result": 16, "unit": "µg/mL"}]}, {"compound": "CCC[C@@H]1C[C@@H](C(=O)N[C@@H]([C@H]2O[C@H](SC)[C@H](O)[C@@H](O)[C@H]2O)[C@H](C)Cl)N(C)C1", "note": "[Cl, Clindamycin, reference compound]", "values": [{"measurement": "MIC", "setting": "S. pneum ATCC 49619; Streptococcus pneumoniae, ATCC49619, 18-24 hours, 5% CO2, read-out: Minimum Inhibitory Concentrations, S. pneum ATCC 49619", "result": 0.015, "unit": "µg/mL"}, {"measurement": "MIC", "setting": "S. pneum AB 14 (erm); Streptococcus pneumoniae, read-out: Minimum Inhibitory Concentrations, S. pneum AB 14 (erm)", "result": "> 16", "unit": "µg/mL"}, {"measurement": "MIC", "setting": "S. pneum 1275 (erm); Streptococcus pneumoniae, read-out: Minimum Inhibitory Concentrations, S. pneum 1275 (erm)", "result": "> 16", "unit": "µg/mL"}, {"measurement": "MIC", "setting": "MoraXella MI; Moraxella, read-out: Minimum Inhibitory Concentrations, MoraXella MI", "result": 2, "unit": "µg/mL"}]}, {"compound": "CCC1OC(=O)C(C)C(OC(=O)Cc2ccccc2F)C(C)C(OC2OC(C)CC(N(C)Cc3ccc(F)cc3)C2O)C(C)(OC)CC(C)C(=O)C(C)C(O)C1(C)O", "note": "(stereo not shown) [Compound No. 5, 3-O-(2-Fluorophenyl)acetyl-5-O-[3′-N-desmethyl-3′-N-(4-fluoro)benzyl]desosaminyl-6-O-methyl erythronolide A]", "values": [{"measurement": "Minimum Inhibitory Concentrations, S. pneum ATCC 49619", "setting": "S. pneum ATCC 49619", "result": 2, "unit": "µg/mL"}, {"measurement": "Minimum Inhibitory Concentrations, S. pneum ATCC 6303", "setting": "S. pneum ATCC 6303", "result": 2, "unit": "µg/mL"}, {"measurement": "Minimum Inhibitory Concentrations, S. pneum CS 1687 (mef)", "setting": "S. pneum CS 1687 (mef)", "result": 2, "unit": "µg/mL"}, {"measurement": "Minimum Inhibitory Concentrations, S. pneum 1251 (mef)", "setting": "S. pneum 1251 (mef)", "result": 2, "unit": "µg/mL"}, {"measurement": "Minimum Inhibitory Concentrations, S. pneum AB 34 (mef)", "setting": "S. pneum AB 34 (mef)", "result": ">8", "unit": "µg/mL"}, {"measurement": "Minimum Inhibitory Concentrations, H. inflenza ATCC 49247", "setting": "H. inflenza ATCC 49247", "result": ">128", "unit": "µg/mL"}, {"measurement": "Minimum Inhibitory Concentrations, S. pneum 1294 (mef)", "setting": "S. pneum 1294 (mef)", "result": 2, "unit": "µg/mL"}, {"measurement": "Minimum Inhibitory Concentrations, S. pneum AB 14 (erm)", "setting": "S. pneum AB 14 (erm)", "result": ">8", "unit": "µg/mL"}, {"measurement": "Minimum Inhibitory Concentrations, S. pneum 1256 (erm)", "setting": "S. pneum 1256 (erm)", "result": ">8", "unit": "µg/mL"}, {"measurement": "Minimum Inhibitory Concentrations, S. pneum AB 30 (erm)", "setting": "S. pneum AB 30 (erm)", "result": ">8", "unit": "µg/mL"}, {"measurement": "Minimum Inhibitory Concentrations, S. pneum 1275 (erm)", "setting": "S. pneum 1275 (erm)", "result": ">16", "unit": "µg/mL"}, {"measurement": "Minimum Inhibitory Concentrations, MoraXella MI", "setting": "MoraXella MI", "result": ">8", "unit": "µg/mL"}]}]}
